These results are taken from patent US9061016B2, “Aqueous solution comprising 3-quinuclidinones for the treatment hyperproliferative, autoimmune and heart disease” (APREA AB, priority 2010, dated 2015).

The nature of data set [1]: Infusion bag compatibility study. Type of data set: physicochemical. The protocol: HPLC—Chromatography was performed on an Agilent 1100/1200 series HPLC system using a Purospher Star RP-18e, 5 μm (250×4.6) mm Column at 20° C. Sample temperature was set to 5° C. by a thermostat. Detection was accomplished by means of a UV/VIS DAD detector at 210 nm. The flow rate was set to 1.0 mL/min and the injection volume was 10 μL. The mobile phase used was a gradient of phosphate buffer (A) in acetonitrile (B): 0-5 min: 90% A, 5-20 min: 70% A, 20-35 min: 20% A, 35-45 min: 90% A. The calibration was obtained using pure APR-246 standard solutions freshly prepared prior to analyses. Data acquisition was performed electronically. The method has been validated. This example summarizes the results of a compatibility study of the APR-246 drug product (150 mg/mL stock solution) in six infusion bags, to confirm physical and chemical stability of the drug product in the NaCl solution and compatibility with infusion bags and tubing device material. The drug product should be diluted with sterile 0.9% NaCl solution for infusion to a total volume of 500 ml before administration. The duration of the study covers a period beyond finalisation of infusion to the patient. The study was designed for a worst case lowest dose of 0.15 mg/mL and for a worst case highest dose of 24 mg/mL. […]

The next data set deals with AML MV-4-11 cells. Description: Hollow fiber in vivo mouse model. The conditions noted are these: AML MV-4-11 cells in hollow fibers in mice; end of the experiment; by number. On the procedure:
Data is shown as mean±SEM (n=7-8).
Furthermore, in vivo experiments using the hollow fiber mouse model with 2-(hydroxymethyl)-2-(methoxymethyl)quinuclidin-3-one indicate that inventive compounds have a significant anti-leukemic effect. These experiments were performed using the hollow fiber in vivo mouse model (for a short description of the model, cf. the internet website http://dtp.nci.nih.gov/timeline/noflash/milestones/M13_hollow_fiber.htm).

A short description of data set [2]: Solubility and pH of APR-246 in water solutions. Type of data set: physicochemical.
The nature of data set [3]: Long term stability studies of APR-246 in aqueous system. It is filed as physicochemical. The protocol: APR-246 stock solutions were manufactured at a concentration of about 150 mg/mL at pH 3.9. The finished product consisted of 21.5-22.0 mL of drug product aseptically filled into presterilized 50 mL glass vials. The manufacturing was in compliance with Good Manufacturing Practices regulations. […] HPLC—Chromatography was performed on an Agilent 1100/1200 series HPLC system using a Purospher Star RP-18e, 5 μm (250×4.6) mm Column at 20° C. Sample temperature was set to 5° C. by a thermostat. Detection was accomplished by means of a UV/VIS DAD detector at 210 nm. The flow rate was set to 1.0 mL/min and the injection volume was 10 μL. The mobile phase used was a gradient of phosphate buffer (A) in acetonitrile (B): 0-5 min: 90% A, 5-20 min: 70% A, 20-35 min: 20% A, 35-45 min: 90% A. The calibration was obtained using pure APR-246 standard solutions freshly prepared prior to analyses. Data acquisition was performed electronically. The method has been validated.

Another data set concerns H1299. Description: Effect of APR-246 on cell viability in cancer cell lines. It is filed as cell-based. The conditions noted are these: Homo sapiens, NCI-H1299, Non-small cell lung carcinoma H1299, mean±SD. The protocol: (§1) The therapeutic activity of the compound 2-(hydroxymethyl)-2-(methoxymethyl)-quinuclidin-3-one (herein also referred to as APR-246) in the treatment of various cancers has been shown by in vitro assays using various cancer cell lines, cf. Table 2, wherein the IC50 of APR-246 in various types of cancerous cells is shown.
(§2) In Table 2, the results are shown as mean±SD; the IC50 values are calculated as the average of the IC50 values in the individual experiments.

A further data set relates to MDA-MB-231. The description is as above. The conditions noted are these: Homo sapiens, Breast adenocarcinoma MDA-MB-231, mean±SD. Type of data set: cell-based. The protocol:
as §1, §2

The test system of the next data set is KBM3. The data set is described as above. Type of data set: cell-based. The conditions noted are these: Acute Myelomonocytic Leukaemia KBM3, mean±SD. The protocol:
as §1, §2

Another data set has as its system 22Rv1. The data set is described as above. The conditions noted are these: Homo sapiens, Prostate carcinoma 22Rv1, mean±SD. It is filed as cell-based. The protocol: as §1, §2
The subject of another data set is HT-29. Described as above. Type of data set: cell-based. The conditions noted are these: Homo sapiens, Colorectal adenocarcinoma HT-29, mean±SD. On the procedure:
as §1, §2

Another data set has as its system SaOS-2. The description is as above. Type of data set: cell-based. The conditions noted are these: Homo sapiens, Osteosarcoma SaOS-2, mean±SD. On the procedure: as §1, §2
The next data set relates to SaOS-2-His273. Described as above. Type of data set: cell-based. The conditions noted are these: Osteosarcoma SaOS-2-His273, mean±SD. On the procedure:
as §1, §2

For a further data set, the system named is PC3-puro. The description is as above. It is filed as cell-based. The conditions noted are these: Prostate adenocarcinoma PC3-puro, mean±SD. On the procedure: as §1, §2
In a further data set the test system is BT-474. Described as above. Type of data set: cell-based. The conditions noted are these: Homo sapiens, Breast ductal carcinoma BT-474, mean±SD. The protocol: as §1, §2
For another data set, the system named is U-2OS. The data set is described as above. The conditions noted are these: Homo sapiens, U2OS, Osteosarcoma U-2OS, mean±SD. Type of data set: cell-based. The protocol: as §1, §2
Another data set relates to MCF-7. The description is as above. Type of data set: cell-based. The conditions noted are these: Homo sapiens, MCF7, Breast adenocarcinoma MCF-7, mean±SD. On the procedure:
as §1, §2

A further data set deals with PC3-175. Described as above. Type of data set: cell-based. The conditions noted are these: Prostate adenocarcinoma PC3-175, mean±SD. The protocol:
as §1, §2

For the next data set, the system named is H1299-His175. The data set is described as above. The conditions noted are these: Non-small cell lung carcinoma H1299-His175, mean±SD. It is filed as cell-based. The protocol:
as §1, §2

Data set [4] is described as follows: HPLC-UV before and after autoclaving of APR-246 solution. Type of data set: physicochemical. The conditions noted are these: autoclaving at 121° C. On the procedure: (§3) HPLC—Chromatography was performed on an Agilent 1100/1200 series HPLC system using a Purospher Star RP-18e, 5 μm (250×4.6) mm Column at 20° C. Sample temperature was set to 5° C. by a thermostat. Detection was accomplished by means of a UV/VIS DAD detector at 210 nm. The flow rate was set to 1.0 mL/min and the injection volume was 10 μL. The mobile phase used was a gradient of phosphate buffer (A) in acetonitrile (B): 0-5 min: 90% A, 5-20 min: 70% A, 20-35 min: 20% A, 35-45 min: 90% A. The calibration was obtained using pure APR-246 standard solutions freshly prepared prior to analyses. Data acquisition was performed electronically. The method has been validated. The APR-246 drug product was a sterile concentrate for solution for infusion. The solution was sterilised by filtration according to Ph Eur standard method and aseptically filled in vials.

A short description of data set [5]: Stability studies of APR-246 in an aqueous system at different pH. It is filed as physicochemical. On the procedure:
Several aqueous formulations of APR-246 and of the hydrochloric acid addition salt of APR-246 were prepared and tested for stability.
The stability increases with decreased pH. To establish a suitable pH for APR-246 with respect to stability, studies with the drug substance in different solutions at different pH were performed.
as §3, with “validated.” for “validated. The APR-246 drug product was a sterile concentrate for solution for infusion. The solution was sterilised by filtration according to Ph Eur standard method and aseptically filled in vials.”

Usually IC50 stands for the concentration that inhibits the measured activity by half. A higher IC50 goes with a need for much substance. For `COCC1(CO)C(=O)C2CCN1CC2` (stereo not shown) [APR-246, 2-(hydroxymethyl)-2-(methoxymethyl)quinuclidin-3-one], the “stability in infusion bag over the range of the study” value in data set [1] (high concentration) and in data set [1] (low concentration) was “satisfactory stability” each time. Besides, the “net growth of leukemic cells” value in the data set with AML MV-4-11 cells is listed as “about −25%”. The “solubility in water solutions” value in data set [2] is on record as “readily soluble”. Besides, the “long term stability in the inventive formulation” value in [3] (formulated for clinical use, about 150 mg/mL, pH 3.9) is listed as “stable”. The “expected degradation on storage” value in data set [3] (over a period of two years, stored at 2-8° C.) was “no significant degradation”. In addition, the IC50 amounted to 16 ± 7 µM in the data set on H1299; 18 ± 5 µM in the data set on MDA-MB-231; 7 ± 1 µM in the data set on KBM3; 10 ± 0.6 µM with 22Rv1; 25 ± 5 µM in the data set on HT-29; 27 ± 5 µM with SaOS-2. The IC50 with SaOS-2-His273 came out at 14 ± 3 µM; in the data set with PC3-puro it was 27 ± 3 µM; in the data set with BT-474 it was 3 ± 2 µM; in the data set with U-2OS, 15 ± 4 µM; with MCF-7, 15 ± 1 µM; in the data set with PC3-175, 23 ± 7 µM. In the data set on H1299-His175, the IC50 was found to be 14 ± 8 µM. Besides, the “degradation on autoclaving the solution in the final container” value in data set [4] is on record as “degradation was too pronounced”. Also, the “stability of formulations with pH above 6” value in [5] (pH above 6, model systems of Table 3) was “stability problems”. The “degradation in aqueous solutions” value in data set [5] (room temperature and lower temperatures, regardless of the concentration profile) is “suffered from degradation”.
